Key:
[1] = system: HCT-116 (human colon carcinoma); assay: MTS cytotoxicity assay, HCT-116; type: cell-based
[2] = system: CCD-18Co (human colon fibroblasts)
[3] = system: CCD-18Co (human colon fibroblasts); assay: cells
[4] = system: Caco-2 (human epithelial colorectal adenocarcinoma); assay: cells
[5] = system: calf thymus DNA (EB-DNA complex); details: binding to DNA; cited from earlier work

Row | SMILES | IC50 ([1]; HCT-116, 24 h) [µM] | IC50 ([1]; HCT-116, 48 h) [µM] | IC50 ([1]; HCT-116, 72 h) [µM] | cytotoxic selectivity, cancer cells versus normal cells CCD-18Co [2] | IC50 ([3]; 24 h) [µM] | IC50 ([3]; 48 h) [µM] | IC50 ([3]; 72 h) [µM] | IC50 ([4]; Caco-2, 24 h) [µM] | IC50 ([4]; Caco-2, 48 h) [µM] | IC50 ([4]; Caco-2, 72 h) [µM] | KEB, binding constant for ethidium bromide [5] [M⁻¹]
1 | COc1cc([C@@H]2c3cc4c(cc3[C@@H](O[C@@H]3O[C@@H]5CO[C@@H](C)O[C@H]5[C@H](O)[C@H]3O)[C@H]3COC(=O)[C@H]23)OCO4)cc(OC)c1O [Etoposide] | 27.2 ± 1.2 | 22.9 ± 1.5 | 18.3 ± 1.4 | ~ 2.5 times | 50.1 ± 1.5 | 45.2 ± 1.1 | 42.2 ± 1 | 23.1 ± 1.2 | 17.9 ± 1.3 | 16.5 ± 2 | –
2 | CC[n+]1c(-c2ccccc2)c2cc(N)ccc2c2ccc(N)cc21 [ethidium bromide] | – | – | – | – | – | – | – | – | – | – | 1.2e+06
